Experimental data taken from ChEMBL document CHEMBL5550127, “1,2,3-Triazole-totarol conjugates as potent PIP5K1α lipid kinase inhibitors” (Bioorg Med Chem, 2024).
Active and inactive are the calls of the source. The rule behind the calls is not given here.

Legend:
Casein kinase 2 = Casein kinase 2 (Homo sapiens, UniProt P67870+P68400+P19784+Q8NEV1); experiment: Inhibition of CK2 (unknown origin) using RRRDDDSDDD-EDANS as substrate measured after 15 mins by capillary electrophoresis; assay type: protein assay
[1] = molecular target: Phosphatidylinositol 4-phosphate 5-kinase type-1 alpha (Homo sapiens) (UniProt Q99755); experiment: (§1) Inhibition of recombinant human PIP5K1alpha expressed in Escherichia coli BL21 (DE3) using phosphatidylinositol-4-phosphate as substrate at 10 uM preincubated for 10 mins followed by substrate and ATP addition and further incubated under dark condition with constant shaking for 30 mins by capillary electrophoresis; conditions: time 40.0 min
Sequence of Phosphatidylinositol 4-phosphate 5-kinase type-1 alpha (Homo sapiens) (Q99755 whole entry): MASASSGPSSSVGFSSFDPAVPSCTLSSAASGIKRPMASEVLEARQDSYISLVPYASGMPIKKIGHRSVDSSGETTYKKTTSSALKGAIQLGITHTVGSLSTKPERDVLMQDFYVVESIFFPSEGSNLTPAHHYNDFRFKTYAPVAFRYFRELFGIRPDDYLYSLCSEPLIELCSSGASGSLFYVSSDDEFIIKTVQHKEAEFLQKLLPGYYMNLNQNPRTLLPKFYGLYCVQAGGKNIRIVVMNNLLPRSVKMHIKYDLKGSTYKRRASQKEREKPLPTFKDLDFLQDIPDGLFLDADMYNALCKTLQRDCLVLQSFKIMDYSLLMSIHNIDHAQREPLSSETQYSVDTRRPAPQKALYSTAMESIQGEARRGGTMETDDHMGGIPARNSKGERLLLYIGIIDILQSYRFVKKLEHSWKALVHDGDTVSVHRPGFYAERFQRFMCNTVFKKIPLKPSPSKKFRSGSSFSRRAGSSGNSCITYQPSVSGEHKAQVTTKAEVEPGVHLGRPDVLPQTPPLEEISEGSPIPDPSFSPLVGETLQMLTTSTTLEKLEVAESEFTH

LNCaP [2] = experiment: Antiproliferative activity against human LNCaP cells assessed as inhibition of cell growth by measuring reduction in cell confluence at 20 uM measured every 2 hrs for 48 hrs by IncuCyte live-cell imaging analysis; assay type: functional, cell-based
[3] = molecular target: Phosphatidylinositol 4-phosphate 5-kinase type-1 alpha (Homo sapiens) (UniProt Q99755); experiment: as §1, with “substrate at 1 to 10 uM” for “substrate at 10 uM”; conditions: dose 1-10 µM, time 40.0 min
LNCaP [4] = experiment: Antiproliferative activity against human LNCaP cells assessed as inhibition of cell growth by measuring negative AUC values at 20 uM measured after 48 hrs by IncuCyte live-cell imaging analysis; assay type: functional, cell-based
DU-145 [5] = experiment: Antiproliferative activity against human DU-145 cells assessed as inhibition of cell growth by measuring reduction in cell confluence at 10 to 20 uM measured every 2 hrs for 72 hrs by IncuCyte live-cell imaging analysis; assay type: functional, cell-based; conditions: dose 10-20 µM
PC-3 [6] = experiment: cells; conditions: Homo sapiens, PC-3, 72 h
Description: Antiproliferative activity against human PC-3 cells assessed as inhibition of cell growth measured after 72 hrs by IncuCyte live-cell imaging analysis

DU-145 [7] = experiment: Antiproliferative activity against human DU-145 cells assessed as inhibition of cell growth by measuring reduction in cell confluence at 1 to 5 uM measured every 2 hrs for 72 hrs by IncuCyte live-cell imaging analysis; assay type: functional, cell-based; conditions: dose 1-5 µM
PC-3 [8] = experiment: Induction of morphological changes in human PC-3 cells assessed as change in cell shape at 10 uM measured after 0 to 72 hrs by IncuCyte live-cell imaging based phase contrast microscopic analysis; assay type: functional; conditions: time 0-72 hrs
PC-3 [9] = experiment: Antiproliferative activity against human PC-3 cells assessed as inhibition of cell growth by measuring reduction in cell confluence at 10 to 20 uM measured every 2 hrs for 72 hrs by IncuCyte live-cell imaging analysis; assay type: functional, cell-based; conditions: dose 10-20 µM
LNCaP [10] = experiment: Induction of morphological changes in human LNCaP cells assessed as change in number of cells at 10 uM measured after 0 to 72 hrs by IncuCyte live-cell imaging based phase contrast microscopic analysis; assay type: functional; conditions: time 0-72 hrs
DU-145 [11] = experiment: Antiproliferative activity against human DU-145 cells assessed as inhibition of cell growth by measuring negative AUC values at 20 uM measured after 48 hrs by IncuCyte live-cell imaging analysis; assay type: functional, cell-based
LNCaP [12] = experiment: Antiproliferative activity against human LNCaP cells assessed as inhibition of cell growth by measuring reduction in cell confluence at 10 to 20 uM measured every 2 hrs for 72 hrs by IncuCyte live-cell imaging analysis; assay type: functional, cell-based; conditions: dose 10-20 µM
DU-145 [13] = experiment: Induction of morphological changes in human DU-145 cells assessed as change in cell shape at 10 uM measured after 0 to 72 hrs by IncuCyte live-cell imaging based phase contrast microscopic analysis; assay type: functional; conditions: time 0-72 hrs
DU-145 [14] = experiment: Induction of morphological changes in human DU-145 cells assessed as change in number of cells at 10 uM measured after 0 to 72 hrs by IncuCyte live-cell imaging based phase contrast microscopic analysis; assay type: functional; conditions: time 0-72 hrs
LNCaP [15] = experiment: Induction of morphological changes in human LNCaP cells assessed as change in cell shape at 10 uM measured after 0 to 72 hrs by IncuCyte live-cell imaging based phase contrast microscopic analysis; assay type: functional; conditions: time 0-72 hrs
LNCaP [16] = experiment: Antiproliferative activity against human LNCaP cells assessed as inhibition of cell growth by measuring reduction in cell confluence at 1 to 5 uM measured every 2 hrs for 72 hrs by IncuCyte live-cell imaging analysis; assay type: functional, cell-based; conditions: dose 1-5 µM
PC-3 [17] = experiment: Antiproliferative activity against human PC-3 cells assessed as inhibition of cell growth by measuring negative AUC values at 20 uM measured after 48 hrs by IncuCyte live-cell imaging analysis; assay type: functional, cell-based
PC-3 [18] = experiment: Induction of morphological changes in human PC-3 cells assessed as change in number of cells at 10 uM measured after 0 to 72 hrs by IncuCyte live-cell imaging based phase contrast microscopic analysis; assay type: functional; conditions: time 0-72 hrs
DU-145 [19] = experiment: cells; conditions: Homo sapiens, DU-145, 72 h
Description: Antiproliferative activity against human DU-145 cells assessed as inhibition of cell growth measured after 72 hrs by IncuCyte live-cell imaging analysis

LNCaP [20] = experiment: cells; conditions: Homo sapiens, 72 h
Description: Antiproliferative activity against human LNCaP cells assessed as inhibition of cell growth measured after 72 hrs by IncuCyte live-cell imaging analysis

LNCaP [21] = experiment: Antiproliferative activity against human LNCaP cells assessed as inhibition of cell growth by measuring reduction in cell confluence at 5 to 20 uM measured every 2 hrs for 48 hrs by IncuCyte live-cell imaging analysis; assay type: functional, cell-based; conditions: dose 5-20 µM

In the case of `COc1ccc(-n2cc(COc3ccc4c(c3C(C)C)CC[C@H]3C(C)(C)CCC[C@]43C)nn2)cc1`, the IC50 (Casein kinase 2) is reported as 4.1 µM.
Work on `CC(C)c1c(OCc2cn(-c3cccc([N+](=O)[O-])c3)nn2)ccc2c1CC[C@H]1C(C)(C)CCC[C@]21C` yielded an IC50 (Casein kinase 2) of 0.91 µM.
With `CC(C)c1c(O)ccc2c1CC[C@H]1C(C)(C)CCC[C@]21C` the inhibition [1] was “inactive” and the Activity (LNCaP [2]) was “inactive”.
In the case of `CCCCCCCCCCCn1cc(COc2ccc3c(c2C(C)C)CC[C@H]2C(C)(C)CCC[C@]32C)nn1`, the inhibition [3] is reported as “inactive”.
With `CC(C)c1c(OCc2cn(C3=CCC4C(=O)N(CCN(C)C)C(=O)c5cccc3c54)nn2)ccc2c1CC[C@H]1C(C)(C)CCC[C@]21C` (stereo partly drawn) the Activity (LNCaP [4]) was “Active”, the Activity (DU-145 [5]) was “Active” and the EC50 (PC-3 [6]) was 4.89 µM. The Activity (DU-145 [7]) was “inactive”, the Activity (PC-3 [8]) was “Active” and the Activity (PC-3 [9]) was “Active”. For the same compound, the Activity (LNCaP [10]) was “Active”, the Activity (DU-145 [11]) was “Active” and the Activity (LNCaP [12]) was “Active”. For the same compound, the Activity (DU-145 [13]) was “Active”, the Activity (DU-145 [14]) was “Active” and the Activity (LNCaP [15]) was “Active”. For the same compound, the Activity (LNCaP [16]) was “inactive”, the Activity (PC-3 [17]) was “Active” and the Activity (PC-3 [18]) was “Active”. For the same compound, the EC50 (DU-145 [19]) was 8.57 µM and the EC50 (LNCaP [20]) was 15.7 µM.
With `CN(C)CCN1C(=O)c2cccc3c(-n4cc(CO)nn4)ccc(c23)C1=O` the Activity (LNCaP [21]) was “Active”.
